Measured values published in publication PMC5870190, “A three-in-one-bullet for oesophageal cancer: replication fork collapse, spindle attachment failure and enhanced radiosensitivity generated by a ruthenium(II) metallo-intercalator” (Chemical Science, 2017).

Key:
[1] = test system: OE21 human oesophageal squamous cell carcinoma; test: MTT assay, OE21 cells; type: cell-based; details: for IC50: MTT
Method: (§1) MTT assay. OE21, FLO-1 or hSAEC1-KT cells were seeded in 96 well plates at 20,000 cells/well (for 24 h treatment) or 10,000 cells/well (for 72 h treatment) and allowed to adhere for 24 h before treatment. OE33 cells were seeded in 48 well plates at 40,000 cells/well (24 h treatment) or 20,000 cells/well (72 h treatment). Cancer cell lines were treated with chemicals dissolved in RPMI media for consistency. After incubation, 0.5 mg/ml MTT (thiazolyl blue tetrazolium bromide) dissolved in serum-free medium was added for 60 minutes and the formazan product eluted using acidified isopropanol.
(§2) The absorbance at 540 nm was quantified by plate reader (reference wavelength 650 nm). The metabolic activity of the cell population was determined as a percentage of a negative (solvent) control. […]
(§3) For the determination of mutation induction, from the untreated and each treated condition, 2x10^5 cells were plated in 10 x 100 mm dishes in selective media (regular media

[2] = test system: FLO-1 human oesophageal adenocarcinoma; test: MTT assay, FLO-1 cells; type: cell-based
Method: as §1, §2, §3

FLO-1 cells = test: Clonogenic survival assay with IR, FLO-1; type: cell-based, human; details: Ru1 2 μM or Cis 300 nM for 24 h before IR
Method: (§4) Clonogenic survival assay. OE21, OE33 or FLO1 cells were treated with 2 µM Ru1 for 24 h before irradiation with 0-8 Gy using a 137Cs γ-irradiator (IBL637, CIS Bio Int.; dose rate = 0.809 Gy min−1). 1 h after irradiation, cells were detached using Trypsin and re-seeded in 6 well plates at a density of 300 – 20,000 cells/well in triplicate in an incrementally greater number of cells with increasing IR dose to ensure adequate colony formation. Cells were incubated for 7–14 days after re-seeding to allow colony formation before being fixed with 10% methanol, 10% acetic acid and stained with 0.4% methylene blue. OE33 cells required an additional formaldehyde fixation (4% in PBS, 5 mins) step before the addition of methylene blue solution or colony detachment occurred. Colonies containing 50 cells or greater were counted using a Gelcount instrument and accompanying software (Oxford Optronix). Plating efficiencies were determined for each treatment condition and normalised to an untreated control to provide the surviving fraction (S. F.). S.F. versus radiation dose curves were plotted in GraphPad Prism and fit using a second order polynomial function (R2 values > 0.99). Dose modifying factors (DMF) at a SF=0.1 were calculated using the equation: Dose modifying factor (DMF) = IR dose to give S.F. 0.1/IR dose plus compound to give S.F.0.1. […]

OE33 cells = test: Clonogenic survival assay with IR, OE33; type: cell-based, human; details: Ru1 2 μM or Cis 500 nM for 24 h before IR
Method: as §4

[3] = test system: hSAEC1-KT normal human small airway epithelial cells; test: MTT assay, hSAEC1-KT cells; type: cell-based
Method: as §1, §2, §3

[4] = test system: OE33 human oesophageal adenocarcinoma; test: MTT assay, OE33 cells; type: cell-based
Method: as §1, §2, §3

[5] = test system: OE21, OE33 or FLO-1 cells; test: Clonogenic survival assay with IR, three oesophageal cancer cell lines; type: cell-based, human; details: Ru1 2 μM or sub-cytotoxic cisplatin (500 nM OE21 and OE33, 300 nM FLO-1), 24 h before IR; range over three cell lines
Method: as §4

OE21 cells [6] = test: Clonogenic survival assay with IR, OE21; type: cell-based, human; details: Ru1 2 μM or Cis 500 nM for 24 h before IR
Method: as §4

OE21 cells [7] = test: DNA fibre assay (replication fork progression); type: cell-based, human
Method: DNA fibre assay. The DNA fibre assay was performed as described previously.5 Briefly, OE21 cells were labelled with 30 µM CldU for 30 mins and then 250 µM IdU for an additional 30 mins. Either Ru1 (21 µM) or dppz (7 µM) was added during the second (IdU) nucleotide step (30 mins). DNA replication was terminated using ice-cold PBS and cells lysed (200 mM Tris-HCl pH 7.4, 50 mM EDTA and 0.5% SDS). DNA fibres were spread onto glass slides, fixed with methanol:acetic acid (3:1) and denatured with 2.5 M HCl. After blocking with 2% BSA, fibres were stained with anti-rat and anti-mouse 5-bromo-2′- deoxyuridine (BrdU) that specifically recognise either CldU (Abcam, dilution 1:500) or IdU (BD Sciences, 1:100). Anti-rat Cy3 (Jackson Immuno Research, 1:300) and anti-mouse Alexa-488 (Molecular Probes, 1:300) were used as the respective secondary antibodies. CldU- and IdU-labelled tracts were visualised using a Leica DMRB microscope with a DFC360FX camera and tract length measured by ImageJ software. Statistical analysis was performed by GraphPad Prism software using an unpaired t-test.
Western blotting. Treated samples were washed with cold PBS and lysed in RIPA (radioimmunoprecipitation assay) buffer containing protease inhibitors (10 μg/mL leupeptin, 2 μg/mL pepstatin, 50 μg/mL antipain, 2 μg/mL aprotinin, 20 μg/mL chyprostatin, 2 μg/mL benzamidine, 1 mM phenylmethanesulfonyl fluoride) and phosphatase inhibitors (50 mM NaF, 1 mM […]
Bis-Tris gels and LDS-PAGE. Gels were transferred onto nitrocellulose membrane and probed with primary antibodies in 5% BSA (bovine serum albumin) solutions at the following dilutions: 1/1000 dilution for majority of Cell Signaling antibodies and γH2AX. 1/500 for anti-p-ATR and anti-cleaved caspase 3. 1/200 anti-Chk1. 1/5000-1/10,000 anti- α-tubulin or β-actin.
(§5) Reactions were visualised with a suitable secondary antibody conjugated with horseradish peroxidase (1/5000 dilution, Thermo). […]

OE21 cells [8] = test: Cell-cycle analysis by flow cytometry; type: cell-based, human; details: OE21, 7 μM, 24 h
Method: (§6) phototoxic contribution to bio-activity. Doxorubicin (Sigma) was prepared in doubly-distilled water (10 mg/mL, 17.4 mM).
[Ru(phen)2(dppz)]2+ (2 mM) was prepared in doubly-distilled water.
Sub-cellular fractionation. OE21 or OE33 cells were treated in 12 well plates, washed with cold PBS (2x2 mls) and nuclear and cytosol fractions obtained using the Nuclei EZ Lysis kit (Sigma). Briefly, cells were washed with acidified PBS (pH 2.5) to remove the membrane-bound fraction and 0.4 ml EZ lysis buffer was added. Cells were detached by scraping, collected into eppendorfs, vortexed briefly and left for 5 minutes on ice. Samples were centrifuged (500g, 5 mins) and the supernatant (cytosol fraction) aspirated. The pellet (nuclear fraction) was re-suspended in 200 µl RIPA buffer. […] Ruthenium content was determined by ICP-MS analysis as described in a recent […]
DNA fibre assay. […] CldU- and IdU-labelled tracts were visualised using a Leica DMRB microscope with a DFC360FX camera and tract length measured by ImageJ software. […]
Western blotting. […] Protein content was determined by BCA assay. […]
AnnexinV staining. […] This was incubated for 15 mins at room temperature, 400 µl binding buffer added and analysed by flow cytometry (FL1 and FL3 channels for FITC and PI respectively). […]

[9] = cited from earlier work
OE21 cells [10] = test: Western blotting of DNA damage response (DDR) markers; type: cell-based, human; details: OE21, 24 h treatment
Method: as §6
[Ru(phen)2(dppz)]2+ (2 mM) was prepared in doubly-distilled water. […]
Western blotting. Treated samples were washed with cold PBS and lysed in RIPA (radioimmunoprecipitation assay) buffer containing protease inhibitors (10 μg/mL leupeptin, 2 μg/mL pepstatin, 50 μg/mL antipain, 2 μg/mL aprotinin, 20 μg/mL chyprostatin, 2 μg/mL benzamidine, 1 mM phenylmethanesulfonyl fluoride) and phosphatase inhibitors (50 mM NaF, 1 mM Na3VO4 and 20 mM β-glycerophosphate). Protein content was determined by BCA assay. Aliquots of cell lysates (10-50 μg total protein) were prepared in standard Laemmli buffer, heated at 95 °C for 5 minutes and resolved by NuPAGE® 4–12% Bis-Tris gels and LDS-PAGE. Gels were transferred onto nitrocellulose membrane and probed with primary antibodies in 5% BSA (bovine serum albumin) solutions at the following dilutions: 1/1000 dilution for majority of Cell Signaling antibodies and γH2AX. 1/500 for anti-p-ATR and anti-cleaved caspase 3. 1/200 anti-Chk1. 1/5000-1/10,000 anti- α-tubulin or β-actin.
as §5

**Q.** With N.N.[Cl][Pt][Cl] [Cisplatin, cisplatin] as the compound, how does the IC50 ([1]; OE21, 24 h constant exposure) read?
**A.** 22.6 ± 3.6 µM

**Q.** And the IC50 ([1]; OE21, 72 h constant exposure)?
**A.** 6.3 ± 0.6 µM

**Q.** What about the IC50 ([2]; FLO1, 24 h constant exposure) of the same compound?
**A.** 26.5 ± 0.7 µM

**Q.** What about the IC50 ([2]; FLO1, 72 h constant exposure) of the same compound?
**A.** 4.7 ± 0.7 µM

**Q.** What about the S.F. (FLO-1 cells; FLO-1, IR 0 Gy) of the same compound?
**A.** 0.929

**Q.** What about the S.F. (FLO-1 cells; FLO-1, IR 2 Gy) of the same compound?
**A.** 0.340

**Q.** What about the S.F. (FLO-1 cells; FLO-1, IR 4 Gy) of the same compound?
**A.** 0.080

**Q.** And the S.F. (FLO-1 cells; FLO-1, IR 6 Gy)?
**A.** 0.007

**Q.** What about the S.F. (OE33 cells; OE33, IR 0 Gy) of the same compound?
**A.** 0.993

**Q.** And the S.F. (OE33 cells; OE33, IR 2 Gy)?
**A.** 0.280

**Q.** And the S.F. (OE33 cells; OE33, IR 4 Gy)?
**A.** 0.077

**Q.** And the S.F. (OE33 cells; OE33, IR 6 Gy)?
**A.** 0.022

**Q.** And the S.F. (OE33 cells; OE33, IR 8 Gy)?
**A.** 0.005

**Q.** What about the IC50 ([3]; 24 h constant exposure) of the same compound?
**A.** 21.5 ± 5 µM

**Q.** What about the IC50 ([3]; 72 h constant exposure) of the same compound?
**A.** 15.8 ± 2 µM

**Q.** What about the IC50 ([4]; OE33, 24 h constant exposure) of the same compound?
**A.** 11 ± 1.4 µM

**Q.** What about the IC50 ([4]; OE33, 72 h constant exposure) of the same compound?
**A.** 3.25 ± 1 µM

**Q.** What about the “dose modification factor (DMF) at surviving fraction of 0.1” value [5] of the same compound?
**A.** 1.05–1.44

**Q.** And the S.F. (OE21 cells [6]; OE21, IR 0 Gy)?
**A.** 1.000

**Q.** What about the S.F. (OE21 cells [6]; OE21, IR 2 Gy) of the same compound?
**A.** 0.587

**Q.** What about the S.F. (OE21 cells [6]; OE21, IR 4 Gy) of the same compound?
**A.** 0.320

**Q.** What about the S.F. (OE21 cells [6]; OE21, IR 6 Gy) of the same compound?
**A.** 0.159

**Q.** What about the S.F. (OE21 cells [6]; OE21, IR 8 Gy) of the same compound?
**A.** 0.049

**Q.** Which results are given for COc1cccc2c1C(=O)c1c(O)c3c(c(O)c1C2=O)C[C@@](O)(C(=O)CO)C[C@@H]3O[C@H]1C[C@H](N)[C@H](O)[C@H](C)O1 [DOX, doxorubicin]?
**A.** reduction in potency towards OE21 cells compared to OE33 or FLO-1 cells ([1]; 72 h exposure): three-fold; IC50 ([1]; Homo sapiens, Table S2, OE21, 24 h constant incubation): 4.2 ± 0.3 µM; IC50 ([1]; Homo sapiens, Table S2, OE21, 72 h constant incubation): 0.21 ± 0.07 µM; IC50 ([2]; Homo sapiens, FLO-1, Table S2, FLO1, 24 h constant incubation): 6.1 ± 1.9 µM; IC50 ([2]; Homo sapiens, FLO-1, Table S2, FLO1, 72 h constant incubation): 0.05 ± 0.02 µM; IC50 ([4]; Homo sapiens, Table S2, OE33, 24 h constant incubation): 8.1 ± 2.7 µM; IC50 ([4]; Homo sapiens, Table S2, OE33, 72 h constant incubation): 0.07 ± 0.03 µM

**Q.** With c1ccc2nc3c4cccnc4c4ncccc4c3nc2c1 [dppz, dipyridophenazine] as the compound, how does the IC50 ([1]; Homo sapiens, OE21, 24 h constant exposure) read?
**A.** 6.5 ± 2.1 µM

**Q.** And the IC50 ([1]; Homo sapiens, OE21, 72 h constant exposure)?
**A.** 3.3 ± 0.4 µM

**Q.** And the IC50 ([2]; Homo sapiens, FLO-1, FLO1, 24 h constant exposure)?
**A.** 7.5 ± 0.8 µM

**Q.** And the IC50 ([2]; Homo sapiens, FLO-1, FLO1, 72 h constant exposure)?
**A.** 1.9 ± 1.1 µM

**Q.** What about the IC50 ([3]; Homo sapiens, Epithelial cell, 24 h constant exposure) of the same compound?
**A.** > 10 µM

**Q.** What about the IC50 ([3]; Homo sapiens, Epithelial cell, 72 h constant exposure) of the same compound?
**A.** > 10 µM

**Q.** And the “increase in completely stalled/terminated replication forks (CldU tract only) compared to mock-treated” value (OE21 cells [7]; Ru1 21 μM or dppz 7 μM during second (IdU) pulse, 30 min)?
**A.** three-fold

**Q.** And the “greater levels of stalled forks than Ru1” value (OE21 cells [7]; dppz 7 μM vs Ru1 21 μM)?
**A.** two-fold

**Q.** And the IC50 ([4]; Homo sapiens, OE33, 24 h constant exposure)?
**A.** 6.6 ± 2 µM

**Q.** What about the IC50 ([4]; Homo sapiens, OE33, 72 h constant exposure) of the same compound?
**A.** 5.7 ± 0.9 µM

**Q.** And the cell-cycle response (OE21 cells [8])?
**A.** cells accumulated in G1 or early S phase

**Q.** Which IC50 ([1]; OE21, 24 h constant exposure) does the source give for [Ru(phen)2(dppz)]^2+ here?
**A.** > 100 µM

**Q.** And the IC50 ([1]; OE21, 72 h constant exposure)?
**A.** > 100 µM

**Q.** And the “log P” value [9]?
**A.** –1.48

**Q.** What about the IC50 ([2]; FLO1, 24 h constant exposure) of the same compound?
**A.** > 100 µM

**Q.** What about the IC50 ([2]; FLO1, 72 h constant exposure) of the same compound?
**A.** 34 ± 5.7 µM

**Q.** And the “DDR activation (γH2AX immunoblotting)” value (OE21 cells [10])?
**A.** no evidence of DDR activation

**Q.** And the IC50 ([4]; OE33, 24 h constant exposure)?
**A.** > 100 µM

**Q.** And the IC50 ([4]; OE33, 72 h constant exposure)?
**A.** > 100 µM
